# Patent US20020010128A1, “Treatment of hyperproliferative, inflammatory and related mucocutaneous disorders using inhibitors of mevalonate synthesis and metabolism” (priority 2000, published 2002)
# Assays:
# [1] = tested on: TPA-induced ear swelling in mice; assay: TPA-induced ear swelling, mouse acute irritant dermatitis model; assay type: in vivo
# Protocol: Mevastatin was tested topically at 0.5% with several oxysterols known to downregulate HMG-CoA reductase expression, including 25-hydroxycholesterol, in the mouse acute irritant dermatitis model. TPA was applied topically to the ears of mice and the resultant swelling response was measured 24 hr later. Compounds or vehicle alone were topically applied to ears 1 and 6 hr following TPA treatment. The data was expressed as a percent inhibition of the swelling response in the presence of compounds as compared to ears treated with vehicle only.
# The phorbol ester 12-0-tetradecanoyl-13-phorbol acetate (TPA) is the active ingredient in […]. TPA induced skin inflammation peaked between 24 and 30 hours when the ear was the target and between 8 and 16 hours when the flank was the target. These two alternative targets allowed to determine both the short and the longer term activity of different compounds in suppressing TPA-induced inflammation. […]
# The model systems described in Example 9 were employed, using TPA challenge as a model for acute inflammation. […] The percent suppression for each formulation was determined as described in Example 9 at 30 hours post-challenge (for TPA). Results are reported as the percent suppression of inflammation compared to untreated controls, as measured by ear thickness.
# Murine thymic T cells = assay: Murine thymic T cell proliferation (ConA stimulation, MTT assay); assay type: cell-based; conditions: for inhibition of T cell proliferation: murine thymic T cells, different concentrations; for effect of mevalonate on inhibition of T cell proliferation: presence of 1 mM mevalonate
# Protocol: Murine thymic T cells were stimulated with Concanavalin A and incubated for 72 hr, and proliferation was then assessed by measuring viable cell number using the MTT assay (OD 570 nm proportional to viable cell number). Different concentrations of mevastatin and oxysterol alone (CP compounds; Panel A) or oxysterol combined with lanolin (Panel B) were added to the cells 1 hr following ConA treatment (FIG. 2).
# T cells were incubated with different concentrations of mevastatin (CP 115) alone or in the presence of 1 mM mevalonate (MA). The inhibition of T cell proliferation by mevastatin was prevented by addition of mevalonic acid, the product of the HMG-CoA reductase reaction (FIG. 3).
# Murine thymic T cells were incubated with different concentrations of 25-hydroxycholesterol (CP 105; Panel A) or an oxysterol combined with lanolin (C-010; Panel B) in the absence or presence of 1 mM mevalonate (MA).
# To further test this synergistic effect, T cells were incubated with different concentrations of mevastatin alone or in combination with 0.25 μg/ml 25-hydroxycholesterol (CP 105; FIG. 5, Panel A) or 10 μg/ml of an oxysterol combined with lanolin (C-010; FIG. 5, Panel B). The data was expressed as percent of control proliferation. CP 105 and C-010 inhibited T cell proliferation 14% and 28% at the indicated concentrations, respectively. Thus minimally effective concentrations of 25-hydroxycholesterol and C-0010-010 decreased the IC50 of mevastatin by a factor greater than 10-fold (FIG. 5). This experiment confirmed that the inhibition of T cell proliferation by mevastatin is advantageously potentiated by oxysterols.
# Murine thymic T cells were incubated with different concentrations of an inhibitor of geranylgeranyl transferase (GGTI).
# NFAT = assay: NFAT-regulated reporter gene in transiently transfected Jurkat cells; assay type: cell-based, human; conditions: for NFAT activity induced by ionomycin and dominant active ras / NFAT activity stimulated by PMA and dominant active calcineurin: Jurkat cells
# Source text: The effects of lovastatin on NFAT activation and IL-2 gene expression were investigated in Jurkat T cells (human leukemia T cells). Lovastatin inhibited the expression of an NFAT-regulated reporter gene in transiently transfected Jurkat cells stimulated with ionomycin and PMA or with thapsigargin + PMA.
# NFAT is synergistically activated by the Ca^2+/calcineurin and PKC/ras/MAPK pathways. To gain further insight into the novel mechanism of action of lovastatin, dominant active forms of calcineurin and ras were expressed in Jurkat cells to bypass early signaling events mediated by ionomycin (i.e., Ca^2+) and PMA (i.e., PKC).
# [2] = tested on: RBL-2H3 mucosal mast cell line; assay: 3H-serotonin release (degranulation) from RBL-2H3 mast cells; assay type: cell-based
# Source text: The RBL-2H3 mucosal mast cell line has been used extensively to study stimulus secretion coupling. Treatment with a calcium ionophore or antigenic crosslinking of the high affinity receptor for IgE on these cells leads to degranulation and the secretion of various proinflammatory mediators, including biogenic amines such as histamine and serotonin.
# TNF-α = assay: TNF-alpha secretion from stimulated Jurkat cells; assay type: cell-based, human; conditions: ionomycin and PMA-stimulated Jurkat cells
# Asthma patients = assay: Treatment of asthma patients with aerosolized lovastatin; assay type: in vivo, human; conditions: aerosolized form or nasal inhaler
# IL-2 = IL-2 secretion from stimulated Jurkat cells; assay type: cell-based, human
# Source text: (§1) Since NFAT plays a critical role in IL-2 gene transcription, the effects of lovastatin on IL-2 mRNA levels and IL-2 secretion from stimulated lymphoid cells were investigated.
# [3] = tested on: oxazolone-induced contact hypersensitivity in mice; assay: Oxazolone-induced contact hypersensitivity in mice; assay type: in vivo, mouse; conditions: topical sensitizer oxazolone instead of DNFB
# Protocol: Challenging mouse ears with haptens, such as 1-chloro-2,4-dinitrobenzene (DNCB), 2,4-dinitrofluorobenzene (DNFB), or oxazolone after a 5 day sensitization phase, induced severe swelling associated with an immune response that included a memory T cell infiltrate. Maximum swelling occurred between 24 and 48 hours after challenge. Thus, DNFB, DCNB and oxazolone were considered to induce delayed contact hypersensitivity.
# The protocol involved shaving the posterior portion of the backs of anesthetized 7-8 week old female Balb/c mice with electric clippers. DNCB in acetone:olive oil (4:1), DNFB in acetone alone or oxazolone (15% oxazolone in 97% acetone/3% DMSO) was applied to the shaved area in a volume of 50 μl (DNCB), 100 μl (DNFB), or 20 μl (oxazolone). The concentration of DNCB in the sensitizing solution ranged from 0.5% to 4% w/v or 0.1 to 0.5% for DNFB. Five days after sensitization, the thickness of both ears was measured with a spring-loaded micrometer and both surfaces of the ears were challenged with either 10 μl of DNCB in acetone:olive oil ranging in concentration from 0.25%-2.5% w/v, 10 μl of DNFB in acetone at 0.1%, 10 μl 2% oxazolone in 97% acetone/3% DMSO, or vehicle alone. Post challenge ear thickness measurements were taken at 8, 16, 24, 32, 48, 56 and 72 hours. […]
# (§3) The percent suppression for each formulation was determined at 48 hours post-challenge.
# human IL-2 promoter = assay: Human IL-2 promoter activation in Jurkat cells; assay type: cell-based
# Source text: (§2) The effects of lovastatin on NFAT activation and IL-2 gene expression were investigated in Jurkat T cells (human leukemia T cells).
# IL-2 mRNA = IL-2 mRNA accumulation in stimulated Jurkat cells; assay type: cell-based, human; conditions: Jurkat cells stimulated with ionomycin and PMA
# Source text: as §1
# [4] = tested on: DNFB-induced contact hypersensitivity in mice; assay: DNFB-induced contact hypersensitivity in mice (ear swelling); assay type: in vivo, mouse; conditions: 1% topical, applied 30 minutes or one hour after challenge, 48 hours post-challenge
# Protocol: The protocol involved shaving the posterior portion of the backs of anesthetized 7-8 week old female Balb/c mice with electric clippers. […] The concentration of DNCB in the sensitizing solution ranged from 0.5% to 4% w/v or 0.1 to 0.5% for DNFB. […] Post challenge ear thickness measurements were taken at 8, 16, 24, 32, 48, 56 and 72 hours. […] However, a swelling response of at least 50% above baseline was considered reasonable.
# as §3
# [5] = tested on: RSV-driven control reporter gene; assay: RSV-driven control reporter gene in Jurkat cells; assay type: cell-based, human
# Source text: as §2
structure (smiles),measurement,setting,value
CC[C@H](C)C(=O)O[C@H]1CCC=C2C=C[C@H](C)[C@H](CC[C@@H]3C[C@@H](O)CC(=O)O3)[C@H]21 [mevastatin],"percent suppression of TPA-induced acute inflammation, measured by ear thickness","[1]; 0.5% in ethanol/cyclohexane (1:1), applied 30 minutes or one hour after challenge, 30 hours post-challenge",58%
same,inhibition of TPA-induced ear swelling,"[1]; 0.5% topical, applied 1 and 6 hr after TPA, swelling measured 24 hr later",significantly inhibited
same,inhibition of T cell proliferation,Murine thymic T cells,potently inhibit
same,effect of mevalonate on inhibition of T cell proliferation,Murine thymic T cells,reversed by mevalonate
C[C@H](CCCC(C)(C)O)[C@H]1CC[C@H]2[C@@H]3CC=C4C[C@@H](O)CC[C@]4(C)[C@H]3CC[C@]12C [25-hydroxycholesterol],inhibition at 0.25 µg/mL,"Murine thymic T cells; Mus musculus, T-cell, 0.25 μg/ml",14%
same,effect of mevalonate on inhibition of T cell proliferation,Murine thymic T cells,not prevented by mevalonic acid
CN(C)CCCn1cc(C2=C(c3c[nH]c4ccccc34)C(=O)NC2=O)c2ccccc21 [Gö6850],NFAT activity induced by ionomycin and dominant active ras,NFAT,inactive
same,NFAT activity stimulated by PMA and dominant active calcineurin,NFAT,inhibited
COC(=O)[C@H](CC(C)C)NC(=O)c1ccc(NC[C@@H](N)CS)cc1-c1ccccc1 [GGTI-286],inhibition of T cell proliferation,Murine thymic T cells,Dose-dependent inhibition
CC[C@H](C)C(=O)O[C@H]1C[C@@H](C)C=C2C=C[C@H](C)[C@H](CC[C@@H]3C[C@@H](O)CC(=O)O3)[C@H]21 [lovastatin],release of 3H-serotonin,"[2]; RBL-2H3 cells stimulated with antigen or calcium ionophore, dose-dependent",inhibited
same,effect of mevalonic acid on inhibition of 3H-serotonin release,[2]; co-incubation with mevalonic acid,not reversed
same,TNF-α secretion,TNF-α,inhibit
same,relief of lung constriction and inflammation in asthma patients,Asthma patients,more effective relief of lung constriction and inflammation
same,IC50,"IL-2; Jurkat cells stimulated with ionomycin and PMA, read-out: IC50, inhibition of IL-2 secretion",12 µM
same,effect of mevalonic acid on inhibition of IL-2 secretion,IL-2; addition of mevalonic acid,not reversed
same,suppression of oxazolone-induced contact hypersensitivity,[3],dose-dependent
same,NFAT activity induced by ionomycin and dominant active ras,NFAT,strongly inhibited
same,NFAT activity stimulated by PMA and dominant active calcineurin,NFAT,relatively insensitive
same,expression of NFAT-regulated reporter gene,NFAT; Jurkat cells stimulated with ionomycin and PMA or thapsigargin + PMA,inhibited
same,effect of mevalonic acid on inhibition of NFAT reporter activity,NFAT; preincubation of Jurkat cells with mevalonic acid,did not reverse
same,IC50,"NFAT; stated as similar to the IL-2 secretion IC50, read-out: IC50, inhibition of NFAT-dependent reporter activity",~12 µM
same,activation of the human IL-2 promoter,human IL-2 promoter,inhibited activation
same,IL-2 mRNA accumulation,IL-2 mRNA,inhibited
same,suppression of DNFB-induced delayed contact hypersensitivity (ear swelling),[4],reduced delayed contact hypersensitivity
same,transcription from RSV-driven control reporter gene,[5],did not affect
